Measured values as given in patent publication USRE50528E1, “Compounds and compositions for modulating EGFR mutant kinase activities” (Yuhan Corporation, priority 2014, dated 2025).
pIC50: −log10 of the molar value.

Legend:
JAK3 = target: T1, JAK3 (Homo sapiens, UniProt P52333); test: Kinase inhibition assay, JAK3; conditions: biochemical potency;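 note: IC50 against purified truncated human JAK3 preincubated with compound, then reacted with ATP and ULight-Jak1 peptide, phosphorylation read by Europium-labeled antibody LANCE detection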
T1 construct: EGFR and JAK3 (JH1domain-catalytic) kinases, and mutant forms thereof; purchased Carna Biosciences
T1 sequence (P52333 822-1111 limits assumed): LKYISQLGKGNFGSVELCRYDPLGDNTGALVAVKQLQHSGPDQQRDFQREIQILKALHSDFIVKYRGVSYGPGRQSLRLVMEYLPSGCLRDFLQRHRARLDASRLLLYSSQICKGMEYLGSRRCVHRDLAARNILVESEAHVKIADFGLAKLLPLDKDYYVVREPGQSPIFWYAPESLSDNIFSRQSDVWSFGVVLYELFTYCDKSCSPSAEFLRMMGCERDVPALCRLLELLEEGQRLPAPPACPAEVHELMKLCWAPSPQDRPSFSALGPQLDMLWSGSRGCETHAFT

EGFR mutant Del19/T790M = target: T2, EGFR mutant Del19/T790M (Homo sapiens, UniProt P00533, DEL746-750/T790M); test: Kinase inhibition assay, EGFR del E746-A750/T790M; format: biochemical; conditions: read-out: EGFR mutants Del19/T790M
T2 construct: truncated human JAK3, EGFR mutants such as del E746-A750; purchased Carna Biosciences
T2 sequence (P00533 with tags, fused parts or gaps DEL746-750/T790M limits assumed): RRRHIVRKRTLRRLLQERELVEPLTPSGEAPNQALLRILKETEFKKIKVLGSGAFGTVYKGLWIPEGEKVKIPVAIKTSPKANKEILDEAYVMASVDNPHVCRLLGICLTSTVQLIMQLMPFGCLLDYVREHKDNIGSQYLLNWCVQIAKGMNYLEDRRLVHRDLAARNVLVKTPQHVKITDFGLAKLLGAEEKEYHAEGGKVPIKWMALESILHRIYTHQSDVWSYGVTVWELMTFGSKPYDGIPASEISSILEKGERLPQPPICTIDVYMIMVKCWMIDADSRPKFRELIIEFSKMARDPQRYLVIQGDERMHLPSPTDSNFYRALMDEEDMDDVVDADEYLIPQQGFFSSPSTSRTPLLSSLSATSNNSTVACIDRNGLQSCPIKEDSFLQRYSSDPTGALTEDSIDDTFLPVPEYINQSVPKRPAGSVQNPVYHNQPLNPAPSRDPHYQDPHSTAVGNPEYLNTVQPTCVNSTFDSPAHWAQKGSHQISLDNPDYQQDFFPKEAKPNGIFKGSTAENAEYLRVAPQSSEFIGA

[1] = tested on: PC9 (EGFR del E746-A750 mutant); test: Cell viability assay, PC9; format: cell-based; conditions: for Selectivity over wildtype, Wildtype vs mutant H2073/PC9 (fold): cellular potency ratio; for pIC50: cellular potency, 72-hour incubation, ATPLite, read-out: EGFR Mutants PC9;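 for all read-outs here: NSCLC PC9 cells, whose viability relies on EGFR del E746-A750, exposed to serially diluted compound for 72 h at 37 °C, ATPLite read-out, IC50, H2073 as EGFR wildtype line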
[2] = target: T3, EGFR mutant Del19 (E746-A750) (Homo sapiens, UniProt P00533, DEL746-750); test: Kinase inhibition assay, EGFR del E746-A750; format: biochemical; conditions: read-out: EGFR mutants Del19 (E746-A750);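 note: truncated human EGFR mutant kinase, two-hour preincubation with compound, then one-hour reaction with ATP and ULight-PolyGT peptide, LANCE Europium-antibody phosphorylation readout, IC50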
T3 construct: truncated human JAK3, EGFR mutants such as del E746-A750; purchased Carna Biosciences
T3 sequence (P00533 with tags, fused parts or gaps DEL746-750 limits assumed): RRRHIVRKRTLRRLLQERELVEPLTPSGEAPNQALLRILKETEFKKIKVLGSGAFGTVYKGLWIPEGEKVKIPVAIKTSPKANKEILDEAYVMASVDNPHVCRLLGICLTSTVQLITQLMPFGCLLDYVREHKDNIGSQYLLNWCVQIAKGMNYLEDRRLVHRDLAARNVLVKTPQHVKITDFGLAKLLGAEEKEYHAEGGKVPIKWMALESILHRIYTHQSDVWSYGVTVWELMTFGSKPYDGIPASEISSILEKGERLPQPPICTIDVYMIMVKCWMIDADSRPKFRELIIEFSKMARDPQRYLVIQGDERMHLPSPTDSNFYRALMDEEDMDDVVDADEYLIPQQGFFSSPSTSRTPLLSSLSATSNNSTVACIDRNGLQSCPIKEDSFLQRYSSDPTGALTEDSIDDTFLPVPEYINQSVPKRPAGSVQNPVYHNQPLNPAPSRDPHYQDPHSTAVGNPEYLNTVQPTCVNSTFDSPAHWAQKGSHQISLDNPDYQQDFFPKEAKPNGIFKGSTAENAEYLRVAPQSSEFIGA

KDR = target: T4, KDR (Homo sapiens, UniProt P35968); test: Kinase inhibition assay, KDR; format: biochemical; conditions: biochemical potency;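 note: purified full-length human KDR, 30 min preincubation with compound, then 1 h reaction with ATP and Ulight-Jak1 peptide substrate, phosphorylation read by Lance Europium antibody detection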
T4 construct: Purified human, full-length SYK, KDR; purchased Carna Biosciences
T4 sequence (P35968 20-1356): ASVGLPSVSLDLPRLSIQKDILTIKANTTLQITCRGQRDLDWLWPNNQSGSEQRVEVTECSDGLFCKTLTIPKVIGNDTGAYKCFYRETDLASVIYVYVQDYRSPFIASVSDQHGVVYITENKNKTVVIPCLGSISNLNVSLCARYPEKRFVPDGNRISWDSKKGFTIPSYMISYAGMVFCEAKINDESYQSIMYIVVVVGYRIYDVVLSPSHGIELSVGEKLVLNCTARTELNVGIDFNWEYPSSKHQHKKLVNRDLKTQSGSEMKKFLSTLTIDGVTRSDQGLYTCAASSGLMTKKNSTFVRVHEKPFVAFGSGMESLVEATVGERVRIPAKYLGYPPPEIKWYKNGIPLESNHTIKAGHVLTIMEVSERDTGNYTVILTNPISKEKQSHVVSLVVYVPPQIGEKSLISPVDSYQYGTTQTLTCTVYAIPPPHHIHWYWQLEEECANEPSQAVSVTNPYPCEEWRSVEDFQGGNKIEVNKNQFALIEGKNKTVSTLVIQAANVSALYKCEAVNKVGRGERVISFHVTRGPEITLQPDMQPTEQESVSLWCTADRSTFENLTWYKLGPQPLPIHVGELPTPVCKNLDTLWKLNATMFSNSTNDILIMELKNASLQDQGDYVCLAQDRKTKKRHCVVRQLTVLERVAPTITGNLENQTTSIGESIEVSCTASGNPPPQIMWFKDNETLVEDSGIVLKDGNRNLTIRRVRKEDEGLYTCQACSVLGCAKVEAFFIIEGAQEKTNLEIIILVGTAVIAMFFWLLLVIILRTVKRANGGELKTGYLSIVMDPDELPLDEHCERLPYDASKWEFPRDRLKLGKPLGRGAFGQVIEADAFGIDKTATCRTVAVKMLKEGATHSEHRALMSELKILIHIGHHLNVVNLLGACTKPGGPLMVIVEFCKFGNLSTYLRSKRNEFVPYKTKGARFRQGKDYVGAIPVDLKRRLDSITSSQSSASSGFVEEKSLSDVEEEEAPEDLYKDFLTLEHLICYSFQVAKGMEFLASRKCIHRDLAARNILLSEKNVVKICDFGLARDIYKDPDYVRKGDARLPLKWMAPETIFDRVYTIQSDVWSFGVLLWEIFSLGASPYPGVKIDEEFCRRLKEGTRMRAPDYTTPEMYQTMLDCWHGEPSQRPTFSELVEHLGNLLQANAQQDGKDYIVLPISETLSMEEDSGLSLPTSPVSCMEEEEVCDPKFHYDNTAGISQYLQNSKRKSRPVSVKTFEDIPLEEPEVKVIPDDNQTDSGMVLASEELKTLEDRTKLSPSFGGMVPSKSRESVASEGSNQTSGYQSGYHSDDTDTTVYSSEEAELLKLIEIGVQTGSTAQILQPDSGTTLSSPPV

EGFR mutant L858R/T790M = target: T5, EGFR mutant L858R/T790M (Homo sapiens, UniProt P00533, L858R/T790M); test: Kinase inhibition assay, EGFR L858R/T790M; format: biochemical; conditions: read-out: EGFR mutants L858R/T790M;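 note: truncated human enzyme preincubated two hours with compound, then one hour with one millimolar ATP and ULight-PolyGT peptide, Europium-labeled antibody detection, IC50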
T5 construct: truncated human JAK3, EGFR mutants such as del E746-A750; purchased Carna Biosciences
T5 sequence (P00533 669-1210 T790M/L858R limits assumed): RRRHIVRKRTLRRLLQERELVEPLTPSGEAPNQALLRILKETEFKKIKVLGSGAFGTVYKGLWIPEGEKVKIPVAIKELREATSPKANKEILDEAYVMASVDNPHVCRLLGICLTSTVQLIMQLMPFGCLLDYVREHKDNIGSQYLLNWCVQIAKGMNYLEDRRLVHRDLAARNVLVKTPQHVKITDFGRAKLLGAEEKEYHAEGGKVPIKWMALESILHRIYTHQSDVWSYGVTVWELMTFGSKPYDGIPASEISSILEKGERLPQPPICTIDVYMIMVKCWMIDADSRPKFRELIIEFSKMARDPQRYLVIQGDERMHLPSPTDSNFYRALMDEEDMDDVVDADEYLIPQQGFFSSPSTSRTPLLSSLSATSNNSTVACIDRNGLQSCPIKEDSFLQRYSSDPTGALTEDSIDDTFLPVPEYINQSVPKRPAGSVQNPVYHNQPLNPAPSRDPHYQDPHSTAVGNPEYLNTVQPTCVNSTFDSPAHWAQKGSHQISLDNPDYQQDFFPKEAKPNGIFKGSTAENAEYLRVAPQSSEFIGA

SYK = target: T6, SYK (Homo sapiens, UniProt P43405); test: Kinase inhibition assay, SYK; format: biochemical; conditions: biochemical potency;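 note: purified full-length human SYK pre-incubated 30 min with compound, then ULight-TK peptide phosphorylation for 1 h, detected with Europium-labeled antibody in Lance buffer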
T6 construct: Purified human, full-length SYK, KDR; purchased Carna Biosciences

H2073 (EGFR wildtype) = test: Cell viability assay, H2073; format: cell-based; conditions: NCI-H2073; cellular potency; 72-hour incubation; ATPLite;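 note: NSCLC cell line whose survival relies on wildtype EGFR, treated with serially diluted compound, cytotoxic effect judged from remaining cell viability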
EGFR mutant T790M = target: T7, EGFR mutant T790M (Homo sapiens, UniProt P00533, T790M); test: Kinase inhibition assay, EGFR mutant T790M; conditions: biochemical potency;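 note: truncated human EGFR mutant enzyme preincubated two hours with compound, then ATP plus ULight-PolyGT peptide for one hour, Europium-labeled antibody LANCE detection, IC50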
T7 construct: truncated human JAK3, EGFR mutants such as del E746-A750; purchased Carna Biosciences
T7 sequence (P00533 669-1210 T790M limits assumed): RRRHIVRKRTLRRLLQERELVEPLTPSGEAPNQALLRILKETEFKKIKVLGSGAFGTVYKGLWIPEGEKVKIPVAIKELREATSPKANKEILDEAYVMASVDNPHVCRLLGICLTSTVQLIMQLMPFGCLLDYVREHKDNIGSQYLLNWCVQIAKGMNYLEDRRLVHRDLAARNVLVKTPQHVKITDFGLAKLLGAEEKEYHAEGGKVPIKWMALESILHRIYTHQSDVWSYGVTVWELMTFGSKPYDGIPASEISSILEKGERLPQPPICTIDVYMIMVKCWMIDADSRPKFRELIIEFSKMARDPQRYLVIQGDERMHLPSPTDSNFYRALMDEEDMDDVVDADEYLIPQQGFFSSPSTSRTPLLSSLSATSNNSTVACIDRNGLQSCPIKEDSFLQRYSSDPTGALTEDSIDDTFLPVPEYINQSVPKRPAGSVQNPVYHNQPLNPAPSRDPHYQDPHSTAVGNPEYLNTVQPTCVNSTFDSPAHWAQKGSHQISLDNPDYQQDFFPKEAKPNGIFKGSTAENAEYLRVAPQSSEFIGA

[3] = tested on: H1975 (EGFR L858R/T790M mutant); test: Cell viability assay, H1975; format: cell-based; conditions: for pIC50: Homo sapiens, NCI-H1975, cellular potency, 72-hour incubation, ATPLite, read-out: EGFR Mutants H1975; for Selectivity over wildtype, Wildtype vs mutant H2073/H1975 (fold): cellular potency ratio;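 for all read-outs here: NSCLC cells whose survival relies on EGFR L858R/T790M, exposed 72 h to serially diluted compound, ATP-based viability readout, with the H2073 line (wildtype EGFR dependent) as wildtype comparator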
EGFR mutant L858R = target: T8, EGFR mutant L858R (Homo sapiens, UniProt P00533, L858R); test: Kinase inhibition assay, EGFR L858R; format: biochemical; conditions: read-out: EGFR mutants L858R;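 note: truncated human EGFR L858R kinase with compound preincubation, ULight-PolyGT peptide phosphorylation read by Europium-antibody Lance detection, IC50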
T8 construct: truncated human JAK3, EGFR mutants such as del E746-A750; purchased Carna Biosciences
T8 sequence (P00533 669-1210 L858R limits assumed): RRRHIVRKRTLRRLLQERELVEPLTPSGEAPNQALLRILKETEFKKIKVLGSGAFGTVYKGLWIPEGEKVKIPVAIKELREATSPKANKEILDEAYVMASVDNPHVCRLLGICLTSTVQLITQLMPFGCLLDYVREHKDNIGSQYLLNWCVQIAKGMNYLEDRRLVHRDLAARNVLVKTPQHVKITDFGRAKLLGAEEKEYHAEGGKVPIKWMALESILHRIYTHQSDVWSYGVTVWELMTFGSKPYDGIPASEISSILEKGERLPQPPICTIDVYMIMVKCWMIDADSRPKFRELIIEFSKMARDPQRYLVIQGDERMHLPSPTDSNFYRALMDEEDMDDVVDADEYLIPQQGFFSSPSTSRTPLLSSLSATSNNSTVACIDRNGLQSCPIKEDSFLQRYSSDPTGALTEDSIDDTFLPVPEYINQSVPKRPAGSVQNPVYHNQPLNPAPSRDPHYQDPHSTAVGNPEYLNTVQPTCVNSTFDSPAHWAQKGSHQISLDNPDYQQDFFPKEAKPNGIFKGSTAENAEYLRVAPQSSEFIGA

SMILES | pIC50 (JAK3) | pIC50 (EGFR mutant Del19/T790M) | Selectivity over wildtype, Wildtype vs mutant H2073/PC9 (fold) [1] | pIC50 [1] | pIC50 [2] | pIC50 (KDR) | pIC50 (EGFR mutant L858R/T790M) | pIC50 (SYK) | pIC50 (H2073 (EGFR wildtype)) | pIC50 (EGFR mutant T790M) | pIC50 [3] | Selectivity over wildtype, Wildtype vs mutant H2073/H1975 (fold) [3] | pIC50 (EGFR mutant L858R)
C=CC(=O)Nc1cc(Nc2ncc(C)c(-n3cc(CN4CCC4)cn3)n2)c(OC)cc1N1CCN(C)CC1 [Compound 36, N-(5-(4-(4-(azetidin-1-ylmethyl)-1H-pyrazol-1-yl)-5-methylpyrimidin-2-ylamino)-4-methoxy-2-(4-methylpiperazin-1-yl)phenyl)acrylamide] | > 7.70 | > 7.70 | 20-100 fold | 6.70 to 7.70 | > 7.70 | < 6.00 | > 7.70 | < 6.00 | < 6.00 | > 7.70 | 6.70 to 7.70 | 20-100 fold | > 7.70
C=CC(=O)Nc1cc(Nc2ncc(C)c(-n3cc(CN4CCC4)cn3)n2)c(OC)cc1N(C)CCN(C)C [Compound 42, N-(5-(4-(4-(azetidin-1-ylmethyl)-1H-pyrazol-1-yl)-5-methylpyrimidin-2-ylamino)-2-((2-(dimethylamino)ethyl)(methyl)amino)-4-methoxyphenyl)acrylamide] | > 7.70 | > 7.70 | 20-100 fold | 6.00 to 6.70 | > 7.70 | < 6.00 | > 7.70 | < 6.00 | < 6.00 | > 7.70 | 6.70 to 7.70 | >200 fold | 6.70 to 7.70
C=CC(=O)Nc1cc(Nc2ncc(C)c(-n3cc(C)c(CN4CC(O)C4)c3)n2)c(OC)cc1N1CCOCC1 [Compound 48, N-(5-(4-(3-((3-hydroxyazetidin-1-yl)methyl)-4-methyl-1H-pyrrol-1-yl)-5-methylpyrimidin-2-ylamino)-4-methoxy-2-morpholinophenyl)acrylamide] | > 7.70 | > 7.70 | <20 fold | 6.00 to 6.70 | > 7.70 | < 6.00 | > 7.70 | 6.00 to 6.70 | < 6.00 | > 7.70 | 6.00 to 6.70 | <20 fold | 6.70 to 7.70
C=CC(=O)Nc1cc(Nc2ncc(Cl)c(-n3cc(CN4CCC4)c(C)n3)n2)c(OC)cc1N1CCOCC1 [Compound 50, N-(5-(4-(4-(azetidin-1-ylmethyl)-3-methyl-1H-pyrazol-1-yl)-5-chloropyrimidin-2-ylamino)-4-methoxy-2-morpholinophenyl)acrylamide] | > 7.70 | > 7.70 | 101-200 fold | 6.70 to 7.70 | > 7.70 | < 6.00 | > 7.70 | < 6.00 | < 6.00 | > 7.70 | 6.70 to 7.70 | >200 fold | 6.70 to 7.70
C=CC(=O)Nc1cc(Nc2ncc(Cl)c(-n3cc(CN4C[C@@H](O)[C@@H](O)C4)c(C)n3)n2)c(OC)cc1N1CCN(C)CC1 [Compound 54, N-(5-(5-chloro-4-(4-(((3R,4S)-3,4-dihydroxypyrrolidin-1-yl)methyl)-3-methyl-1H-pyrazol-1-yl)pyrimidin-2-ylamino)-4-methoxy-2-(4-methylpiperazin-1-yl)phenyl)acrylamide] | > 7.70 | > 7.70 | 20-100 fold | 6.70 to 7.70 | > 7.70 | < 6.00 | > 7.70 | < 6.00 | < 6.00 | > 7.70 | 6.00 to 6.70 | <20 fold | 6.70 to 7.70
C=CC(=O)Nc1cc(Nc2nccc(-n3cc(CN4CCC4)c(C4CC4)n3)n2)c(OC)cc1N1CCOCC1 [Compound 55, N-(5-(4-(4-(azetidin-1-ylmethyl)-3-cyclopropyl-1H-pyrazol-1-yl)pyrimidin-2-ylamino)-4-methoxy-2-morpholinophenyl)acrylamide] | > 7.70 | > 7.70 | >200 fold | > 7.70 | > 7.70 | < 6.00 | > 7.70 | < 6.00 | < 6.00 | > 7.70 | 6.70 to 7.70 | 101-200 fold | > 7.70
C=CC(=O)Nc1cc(Nc2ncc(F)c(-n3cc(CN4CCC4)c(C)n3)n2)c(OC)cc1N1CCOCC1 [Compound 62, N-(5-(4-(4-(azetidin-1-ylmethyl)-3-methyl-1H-pyrazol-1-yl)-5-fluoropyrimidin-2-ylamino)-4-methoxy-2-morpholinophenyl)acrylamide] | > 7.70 | > 7.70 | >200 fold | 6.70 to 7.70 | > 7.70 | < 6.00 | > 7.70 | < 6.00 | < 6.00 | > 7.70 | 6.70 to 7.70 | >200 fold | > 7.70
C=CC(=O)Nc1cc(Nc2nccc(-n3cc(CN(C)C)c(C)n3)n2)c(OC)cc1N(C)C [Compound 71, N-(2-(dimethylamino)-5-(4-(4-((dimethylamino)methyl)-3-methyl-1H-pyrazol-1-yl)pyrimidin-2-ylamino)-4-methoxyphenyl)acrylamide] | > 7.70 | > 7.70 | >200 fold | > 7.70 | > 7.70 | < 6.00 | > 7.70 | 6.00 to 6.70 | < 6.00 | > 7.70 | > 7.70 | >200 fold | > 7.70
C=CC(=O)Nc1cc(Nc2ncc(C)c(-n3cc(CN(C)C)c(C)n3)n2)c(OC)cc1N1CCOCC1 [Compound 75, N-(5-(4-(4-((dimethylamino)methyl)-3-methyl-1H-pyrazol-1-yl)-5-methylpyrimidin-2-ylamino)-4-methoxy-2-morpholinophenyl)acrylamide] | > 7.70 | > 7.70 | 101-200 fold | 6.70 to 7.70 | > 7.70 | < 6.00 | > 7.70 | 6.70 to 7.70 | < 6.00 | > 7.70 | 6.70 to 7.70 | 101-200 fold | > 7.70
C=CC(=O)Nc1cc(Nc2ncc(C)c(-n3cc(CN4CCC4)c(C)n3)n2)c(OC)cc1N1CCOCC1 [Compound 76, N-(5-(4-(4-(azetidin-1-ylmethyl)-3-methyl-1H-pyrazol-1-yl)-5-methylpyrimidin-2-ylamino)-4-methoxy-2-morpholinophenyl)acrylamide] | > 7.70 | > 7.70 | 101-200 fold | 6.70 to 7.70 | > 7.70 | < 6.00 | > 7.70 | 6.00 to 6.70 | < 6.00 | > 7.70 | 6.70 to 7.70 | 101-200 fold | > 7.70
C=CC(=O)Nc1cc(Nc2nccc(-n3cc(CN(C)C)c(C)n3)n2)c(OC)cc1N1CCN(CCF)CC1 [Compound 79, N-(5-(4-(4-((dimethylamino)methyl)-3-methyl-1H-pyrazol-1-yl)pyrimidin-2-ylamino)-2-(4-(2-fluoroethyl)piperazin-1-yl)-4-methoxyphenyl)acrylamide] | > 7.70 | > 7.70 | 101-200 fold | 6.70 to 7.70 | > 7.70 | < 6.00 | > 7.70 | 6.00 to 6.70 | < 6.00 | > 7.70 | 6.70 to 7.70 | 101-200 fold | > 7.70
C=CC(=O)Nc1cc(Nc2ncc(C)c(-n3cc(CN4CCC4)c(C4CC4)n3)n2)c(OC)cc1N1CCOCC1 [Compound 123, N-(5-(4-(4-(azetidin-1-ylmethyl)-3-cyclopropyl-1H-pyrazol-1-yl)-5-methylpyrimidin-2-ylamino)-4-methoxy-2-morpholinophenyl)acrylamide] | > 7.70 | > 7.70 | >200 fold | > 7.70 | > 7.70 | < 6.00 | > 7.70 | 6.00 to 6.70 | < 6.00 | > 7.70 | > 7.70 | >200 fold | > 7.70
